Literature values as cited in patent US10010648B2, “Transdermal delivery system” (Edixomed Limited, priority 2013, dated 2018).

Legend:
[1] = healthy 70 kg-adult

Compound	generally accepted safe dosage for topical anaesthesia [1] [mg]	pKa
COC(=O)[C@H]1[C@@H](OC(=O)c2ccccc2)C[C@@H]2CC[C@H]1N2C [cocaine]	200	
CCCCNc1ccc(C(=O)OCCN(C)C)cc1 [tetracaine]	50	
CCN(CC)CC(=O)Nc1c(C)cccc1C [lidocaine]	750	
C=CC(=O)O [acrylic acid]		4.3 to 4.4
